Values quoted from earlier work as cited in patent publication US12310957B2, “Bowel cleansing composition” (priority 2013, dated 2025).

Tested on: patients undergoing colonoscopy
Details: Nunes et al. 2008, scale proposed by the authors

Structure (SMILES): OC[C@@H](O)[C@@H](O)[C@H](O)[C@H](O)CO [mannitol]
- rate of adequate bowel cleansing: 75%
